Laboratory results taken from ChEMBL document CHEMBL1132572 (J Med Chem, 1999).

How the values were obtained:
[1] = system: Human immunodeficiency virus 1; assay: Concentration that inhibits Human Immunodeficiency Virus Type 1 (HIV-1)-induced death of MT-2 cells; assay type: functional, MT2; details: read-out: ED50 (the source's name)
MT2 = assay: Lethal dose (LD5) concentration inhibiting growth of MT-2 cells by 5%; assay type: toxicity, cell-based; details: human
[2] = target: Human immunodeficiency virus type 1 integrase (Human immunodeficiency virus 1, UniProt Q7ZJM1)
Description: Inhibitory activity against Human Immunodeficiency Virus Type 1 integrase (HIV-1 IN) in the disintegration assay.

[3] = system: Human immunodeficiency virus 1; details: read-out: ED50
[4] = system: Human immunodeficiency virus 1; assay: microbe, parasite or virus in culture; details: Human immunodeficiency virus 1, read-out: ED50
[5] = system: Human immunodeficiency virus 1; details: read-out: ED50; remark: listed apart in the source
[6] = Human immunodeficiency virus 1, MT2

Compound	EC50 [1, 6]	LD5 (MT2)	IC50 [2]	EC50 [3]	EC50 [1]	EC50 [4]	EC50 [5]
O=C(O)C(O)C(O)C(=O)O (stereo not drawn)	> 1000 µM	> 1000 µM					
O=C(/C=C/c1ccc(O)c(O)c1)Oc1cc(OC(=O)/C=C/c2ccc(O)c(O)c2)cc(C(=O)O)c1	> 75 µM	100 µM	6.9 µM				
O=C(OC(C(=O)O)C(OC(=O)c1ccc(F)c(F)c1)C(=O)O)c1ccc(F)c(F)c1 (stereo not drawn)	> 59.2 µM	28.9 µM					
O=C(OC(C(=O)O)C(OC(=O)c1cc(O)ccc1O)C(=O)O)c1cc(O)ccc1O (stereo not drawn)	> 238 µM	> 238 µM					
O=C(/C=C\c1ccc(O)c(O)c1)OC1CCC(OC(=O)/C=C\c2ccc(O)c(O)c2)CC1 (stereo not drawn)	> 45 µM	20.5 µM	1.01 µM				
O=C(OC(C(=O)O)C(OC(=O)c1cc(O)cc(O)c1)C(=O)O)c1cc(O)cc(O)c1 (stereo not drawn)	> 119 µM	> 119 µM					
O=C(/C=C/c1cccc(O)c1)OC(C(=O)O)C(OC(=O)/C=C/c1cccc(O)c1)C(=O)O (stereo not drawn)	> 283 µM	566 µM					
O=C(/C=C/c1ccc(O)c(O)c1)OC(C(=O)OC(c1ccccc1)c1ccccc1)C(OC(=O)/C=C/c1ccc(O)c(O)c1)C(=O)OC(c1ccccc1)c1ccccc1 (stereo not drawn)	> 37.2 µM	16.1 µM					
COc1ccc(/C=C/C(=O)OC(C(=O)O)C(OC(=O)/C=C/c2ccc(OC)c(OC)c2)C(=O)O)cc1OC (stereo not drawn)	> 178 µM	89 µM					
O=C(Cc1ccc(O)c(O)c1)OC(C(=O)O)C(OC(=O)Cc1ccc(O)c(O)c1)C(=O)O (stereo not drawn)		70 µM	0.88 µM	15.6 µM	35 µM	> 62.5 µM	
O=C(/C=C/c1ccc(O)c(O)c1)OC1CCCC(OC(=O)/C=C/c2ccc(O)c(O)c2)C1 (stereo not drawn)	> 34.1 µM	9.1 µM	1.8 µM				
O=C(/C=C\c1ccc(O)c(O)c1)OC1CCCCC1OC(=O)/C=C\c1ccc(O)c(O)c1 (stereo not drawn)	> 90.9 µM	22.7 µM	8.36 µM				
O=C(/C=C/c1ccc(O)c(O)c1)OCCCCOC(=O)/C=C/c1ccc(O)c(O)c1	> 242 µM	121 µM	> 10 µM				
O=C(CCc1ccc(O)c(O)c1)OC(C(=O)O)C(OC(=O)CCc1ccc(O)c(O)c1)C(=O)O (stereo not drawn)		> 263 µM	2.38 µM	7.8 µM	8.4 µM		31.2 µM
O=C(/C=C/c1ccc(O)c(O)c1)OC1C[C@](O)(C(=O)O)C[C@@H](O)[C@H]1OC(=O)/C=C/c1ccc(O)c(O)c1 (stereo partly drawn)	4 µM	145 µM	0.6 µM				
O=C(/C=C/c1ccc(O)c(O)c1)OC1CCC(OC(=O)/C=C/c2ccc(O)c(O)c2)CC1 (stereo not drawn)	> 341 µM	170 µM	1.03 µM				
O=C(/C=C/c1ccc(O)c(O)c1)O[C@@H]1C[C@](O)(C(=O)O)C[C@@H](OC(=O)/C=C/c2ccc(O)c(O)c2)[C@H]1O	2 µM	290 µM	1.3 µM				

Compound	EC50 [1, 6]	LD5 (MT2)	IC50 [2]	EC50 [3]	EC50 [1]	EC50 [4]	EC50 [5]
O=C(/C=C/c1ccc(O)c(O)c1)OCCOC(=O)/C=C/c1ccc(O)c(O)c1	> 388 µM	194 µM	> 10 µM				
O=C(/C=C/c1ccc(O)c(O)c1)OCC(OC(=O)/C=C/c1ccc(O)c(O)c1)C(=O)O (stereo not drawn)	2.3 µM	145 µM	0.52 µM				
O=C(/C=C/c1ccc(O)c(O)c1)OCCCOC(=O)/C=C/c1ccc(O)c(O)c1	> 350 µM	117.5 µM	> 10 µM				
O=C(/C=C/c1ccc(O)c(O)c1)OC1CCCCC1OC(=O)/C=C/c1ccc(O)c(O)c1 (stereo not drawn)	> 136 µM	63.6 µM	> 10 µM				
O=C(/C=C/c1ccc(O)cc1)OC(C(=O)O)C(OC(=O)/C=C/c1ccc(O)cc1)C(=O)O (stereo not drawn)	> 227 µM	114 µM					
O=C(OC(C(=O)O)C(OC(=O)c1cc(O)c(O)c(O)c1)C(=O)O)c1cc(O)c(O)c(O)c1 (stereo not drawn)		2.7 µM	0.97 µM	0.29 µM	0.66 µM		31.2 µM
O=C(OC(C(=O)O)C(OC(=O)c1cccc(O)c1O)C(=O)O)c1cccc(O)c1O (stereo not drawn)	> 38 µM	19 µM	1.07 µM				
O=C(/C=C/c1ccc(O)c(O)c1)O[C@@H]1C[C@@](O)(C(=O)O)CC(O)[C@@H]1OC(=O)/C=C/c1ccc(O)c(O)c1 (stereo partly drawn)	12 µM	116 µM	1.4 µM				
O=C(OC(C(=O)O)C(OC(=O)c1ccc(O)c(O)c1)C(=O)O)c1ccc(O)c(O)c1 (stereo not drawn)		90 µM	0.43 µM	0.82 µM	0.95 µM	> 52.5 µM	
O=C(/C=C/c1ccccc1)OC(C(=O)O)C(OC(=O)/C=C/c1ccccc1)C(=O)O (stereo not drawn)		> 245 µM					
O=C(/C=C\c1ccc(O)c(O)c1)OC1CCCC(OC(=O)/C=C\c2ccc(O)c(O)c2)C1 (stereo not drawn)	> 68.2 µM	36.4 µM	1.63 µM				
O=C(/C=C/c1ccc(O)c(O)c1)O[C@@H]1CC(OC(=O)/C=C/c2ccc(O)c(O)c2)(C(=O)O)C[C@@H](O)C1O (single isomer, unassigned) [CYNARIN]	4 µM	145 µM	1.6 µM				
O=C(/C=C/c1ccc(O)c(O)c1)OC(C(=O)O)C(OC(=O)/C=C/c1ccc(O)c(O)c1)C(=O)O (stereo in doubt; 1 (L))		264 µM					
O=C(O)/C=C/c1ccc(O)c(O)c1 [CAFFEIC ACID]	> 1390 µM	1389 µM					
O=C(/C=C/c1ccc(O)c(O)c1)O[C@H](C(=O)O)[C@H](OC(=O)/C=C/c1ccc(O)c(O)c1)C(=O)O [CHICORIC ACID]		115 µM					
O=C(/C=C/c1ccc(O)c(O)c1)O[C@@H]1C[C@](O)(C(=O)O)C[C@@H](O)[C@H]1O [CHLOROGENIC ACID]	> 497 µM	249 µM					
O=C(O)[C@]1(O)C[C@@H](O)[C@@H](O)[C@H](O)C1 [QUINIC ACID]	> 1820 µM	907 µM					
